{"source": "patent US7919475B2", "about": "“Compositions and methods for improving heart function” (The Regents of The University of California, priority 2004, dated 2011)", "system": "cellular protein O-GlcNAcylation in STZ-induced diabetic hearts", "test": "Cellular protein O-GlcNAcylation in diabetic mouse hearts by Western blot", "type": "in vivo", "settings": "STZ-induced diabetic mice, insulin 50 units/g per day subcutaneously for 2 weeks", "source_text": "To rule out any potentially toxic effects of STZ on the heart, several STZ-injected mice were intensively treated with Ultralente human insulin (Eli Lilly and Company, IN) with 50 units/g per day subcutaneously. The insulin treatment commenced on the third day after STZ injection and lasted for 2 weeks. The cellular O-GlcNAcylation in these hearts was compared with that of the non-insulin treated diabetic hearts. In addition, several 20 weeks old male polygenic diabetic NONcNZO10/LtJ mice (The Jackson Laboratory) (see, e.g., Reifsnyder (2002) Diabetes 51:825-832; Leiter (2004) Diabetes 53 Suppl 1:S4-11) were used as a type II diabetic model to investigate the excess O-GlcNAcyaltion level in the diabetic heart independent of STZ administration. These mice developed hyperglycemia at 12-16 weeks. At the sacrifice time, blood glucose levels were above 33.3 mmol/L. Animal procedures were performed in accordance with the guidelines established by the Committee on Animal Research at the University of California, San Diego. […]\nTwenty μg of protein was mixed with Laemmli sample buffer at room temperature for 10 min (samples for anti-O-GlcNAc antibody detection was heated at 70° C. for 10 min) and then loaded onto 4-10% gradient Tris/glycine gels. […] Films were scanned and analyzed by IMAGE-J™ software (NIH).", "data": [{"substance": "insulin: Ultralente human insulin (Eli Lilly and Company)", "values": [{"measurement": "excess O-GlcNAcylation of cellular protein in diabetic hearts", "value": "prevented"}]}]}
